Activity calls are given as the source filed them.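 How the source made its calls: active means EC50 no more than a set limit of log units above the highest dose; inactive means the rest.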
biological target: S. pyogenes SKKanGAS, kanamycin survival, BacTiterGlo, 6 h; test: SKKanGAS survival reduction under kanamycin, dose response, streptokinase promoter inhibitor project, SKKanGAS strain, luminescence, dose confirmation (AID 1902);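 further: lower survival reflects blocked streptokinase promoter driving kanamycin resistance gene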

SMILES | EC50
Cc1cc(NC(=O)c2ccc3c(c2)OCCO3)ccc1NC(=O)c1cc2ccccc2o1 | 10.1 µM
O=C(O)c1ccc(-c2nc(-c3ccc(Cl)c(Cl)c3)cs2)cc1 | 3.82 µM
COc1cccc(NP(=O)(Oc2ccc(Cl)cc2)Oc2ccc(Cl)cc2)c1 | 3.22 µM
C/C(=N\Nc1cc(C)nc(-c2ccccc2O)n1)c1ccccc1O | 5.37 µM
CCOc1ccc(Nc2nc(N3CCCCC3)nc(N3CCCCC3)n2)cc1 | 0.65 µM
COc1ccccc1N1CC(C(=O)Nc2nnc(SCC(=O)NCC3CCCO3)s2)CC1=O (stereo not given) | > 15 µM (inactive)
COc1ccc(/C=C/c2ccc3c(Br)ccc(O)c3n2)cc1 | 0.785 µM
C=CCn1c(NC(=O)c2ccc(C)cc2)nc2ccccc21 | 9.75 µM
Cc1ccc(Oc2ccc3c(c2)C(=O)N(c2cccc4cccnc24)C3=O)cc1 | 2.91 µM
FC(F)(F)c1cccc(NC(=S)Nc2ccc(Cl)cc2Cl)c1 | 2.83 µM
O=S(=O)(Cc1cc(NCc2ccccc2)nc(-c2ccccn2)n1)c1ccccc1 | 0.808 µM
O=C(O)c1ccc(NC(=S)NC(=O)c2cccc(COc3ccccc3)c2)cc1 | 4.45 µM
O=[N+]([O-])c1ccc(NC(=S)NCCc2ccc(Cl)cc2)cc1 | 1.73 µM
Cc1ccc(C2CC(c3cccs3)=NN2C(=O)c2ccc(Br)o2)cc1 (stereo not given) | 1.94 µM
COc1ccc2cc(C(=O)NCc3ccccc3)c(=Nc3ccc(C(=O)O)cc3)oc2c1 | 3.83 µM
CCN1CCN(C(CNS(=O)(=O)c2ccc(C)cc2)c2cccnc2)CC1 (stereo not given) | > 15 µM (inactive)
O=C(NNC(=S)Nc1ccc(Cl)c(Cl)c1)c1ccccn1 | 1.66 µM
Cc1ccc(-n2[nH]c(C)c(/C=N/NC(=O)c3cccc([N+](=O)[O-])c3)c2=O)cc1C | 1.15 µM
O=C1C(Nc2ccccc2)=C/C(=N/S(=O)(=O)c2cccs2)c2ccccc21 | 1.33 µM
Cc1ccc(/C=C2/Sc3ccc(C(=O)N4CCN(c5ccccn5)CC4)cc3NC2=O)cc1 | 1.91 µM
COc1ccc(C(=O)NNC(=S)NC(=O)c2ccc(F)cc2)cc1Br | 0.127 µM
Oc1c(Cl)cc(Cl)c(Cl)c1Cc1c(O)c(Cl)cc(Cl)c1Cl | 0.202 µM
N#Cc1c(NC(=S)NC(=O)C2CCCC2)sc2c1CCCCC2 | 6.33 µM
O=C(Nc1ccc(F)cc1)c1nc2c(nnn2Cc2cccc3ccccc23)c(=O)[nH]1 | 2.44 µM
COCC1CCN(C(=O)CCc2nnc(C3(c4ccc(Cl)cc4)CCC3)o2)C1 (stereo not given) | > 15 µM (inactive)
C/C(=N\NC(=O)c1cc2ccccc2cc1O)c1cc2ccccc2o1 | 1.47 µM
Cc1cc(C(=O)N/N=C/c2cc(Cl)cc([N+](=O)[O-])c2O)c2ccccc2n1 | 2.61 µM

SMILES | EC50
CN(C)/C=C1\SC(=S)N(c2ccc(Br)cc2)C1=O | 5.37 µM
Brc1ccc(C2C3=C(Nc4ncnn42)c2ccccc2OC3c2ccncc2)cc1 (stereo not given) | 10.1 µM
O=C(NC(NC(=S)Nc1c(Cl)cccc1Cl)C(Cl)(Cl)Cl)OCc1ccccc1 (stereo not given) | 2.5 µM
CCc1ccc(C2C(C#N)=C(N)C(C#N)(C#N)C3=CCC(C(C)(C)C)CC32)cc1 (stereo not given) | 5.18 µM
Cc1cc(C)n(-c2nc(SCC(=O)O)c3c4c(sc3n2)COC(C)(C)C4)n1 | 4.31 µM
Cc1cc(C)nc(SCC(=O)NC2=NN=C(c3ccc(Br)cc3)CS2)n1 | 3.07 µM
CCOC(=O)c1ccc(NC(=O)c2nc[nH]c2C(=O)N[C@@H](CCCCNC(=O)OC(C)(C)C)C(=O)OC(C)(C)C)cc1 | 4.72 µM
CC1=C(C#N)c2nc(N)c(C#N)c(C)c2/C1=C\c1ccc(C)cc1 | 6.18 µM
Oc1ccc(/C=N/Nc2nc(-c3ccc(Cl)cc3)cc(C(F)(F)F)n2)cc1 | 7.89 µM
CCOc1ccc(Cl)cc1S(=O)(=O)n1cnc2cc(C)c(C)cc21 | 4.77 µM
C/C(=N\NC(=O)COc1ccccc1-c1ccccc1)c1ccccn1 | 0.667 µM
CO/N=C(/C(=O)N[C@@H]1C(=O)N2C(C(=O)O)=CCS[C@H]12)c1cnc(N)s1 | < 0.06 µM
O=C(/C=C/c1ccc(F)cc1)NC(=S)NNC(=O)c1cnccn1 | 1.96 µM
O=C(CNc1cccc2ccccc12)N/N=C/c1ccc([N+](=O)[O-])o1 | 1.12 µM
Cc1cc(C)cc(C(=O)NC2C(=O)N3C(C(=O)O)=C(CSc4nnc(C)s4)CSC23)c1 (stereo not given) | 0.38 µM
COc1cc(Cc2cc(N)nc(N)n2)cc(OC)c1OC | 4.31 µM
CCCOc1ccc(-c2nc(OC)c3ccccc3n2)cc1 | > 15 µM (inactive)
COc1ccc(-c2oc3ccc(N4CCOCC4)cc3c2C#CC2(O)CCCCC2)cc1 | 2.11 µM
CCOC(=O)c1sc(NC(=O)CNCc2ccccn2)c(C(=O)OCC)c1C | < 0.06 µM
CC(=O)c1c(C)[nH]c(C(=O)Nc2nc(-c3ccc(-c4ccccc4)cc3)cs2)c1C | 4.14 µM
C=CCc1cc(/C=C2/NC(=O)N(CC)C2=O)cc(OCC)c1OCc1ccc(C(=O)O)cc1 | 11.9 µM
CC(=O)[C@@]1(O)C(C)CC2C3C=C(C)C4=Cc5c(cnn5-c5ccccc5)C[C@]4(C)C3C(O)C[C@@]21C (stereo not given in full) | 3.56 µM
CN=C1S/C(=C\c2ccc(N3CCOCC3)c(F)c2)C(=O)N1C | 4.94 µM
O=C(/C=C/c1cn(-c2ccccc2)nc1-c1ccccc1)Nc1ccc(C(=O)O)cc1 | 3.76 µM
Fc1ccccc1CNc1ccc(Cl)c(Cl)c1 | 15.6 µM
O=C(COC(=O)c1ccccc1)Nc1ccccc1Sc1ccccc1 | 8.89 µM
COc1ccc(-c2csc(Nc3ccc(S(=O)(=O)Nc4cc(C)on4)cc3)n2)cc1C | 6.44 µM

SMILES | EC50
O=C(NNc1nc2ccc(Cl)cc2s1)c1cc(-c2cccs2)nc2ccccc12 | 0.334 µM
CCc1ccc(S(=O)(=O)/N=C2\C=C(Nc3ccc(O)cc3)C(=O)c3ccccc32)cc1 | 1.51 µM
Cc1ccnn2c(-c3ccccc3)c3c(=O)n(C)c(=O)n(C)c3c12 | > 15 µM (inactive)
Cn1ncc2c(Nc3cccc(Cl)c3)nc(Nc3cccc(Cl)c3)nc21 | 2.67 µM
CCCCn1c(/C=N/Nc2nc3ccccc3[nH]2)nc2ccccc21 | 1.17 µM
COc1cnc(-c2ccccn2)nc1Oc1ccccc1Cl | 14.4 µM
Cc1cc(C)c(CSc2ncc(-c3ccc([N+](=O)[O-])cc3)[nH]2)c(C)c1 | 4.19 µM
Clc1cccc(Nc2ncnc3c2cnn3-c2ccccc2)c1 | 4.98 µM
CCSc1nnc(NC(=O)c2ccccn2)s1 | 4 µM
CN1C(=O)/C(=C\c2ccccc2F)Sc2ccc(C(=O)NC3CCN(Cc4ccccc4)CC3)cc21 | 6.22 µM
O=C(O)c1ccc(N/N=C/c2ccc(OC(=O)c3cccc(Cl)c3)cc2)cc1 | 1.4 µM
CCOC(=O)c1cnc(-n2nc(C)cc2C)nc1NC(C)c1ccccc1 (stereo not given) | 2.74 µM
CCN(CC)c1ccc(-n2cc3c(=O)n(C)c(=O)n(C)c3c2)cc1 | 3.43 µM
Cc1ccc(NC(=S)NC(=O)c2ccc(F)cc2)cc1S(=O)(=O)Nc1cccc(Cl)c1 | 2.19 µM
CC(=O)c1cccc2c(O)c(C3=Nc4ccccc4C3=O)[nH]c12 | 6.32 µM
CC(C)C1Cc2c(sc3[nH]c(=S)n(Cc4ccccc4)c(=O)c23)CO1 (stereo not given) | 2.93 µM
CC1(C)CC(c2nc(-c3ccc(Cl)cc3)cs2)CCS1 (stereo not given) | 6.7 µM
C[C@@H](C[C@@H](O)[C@H](O)C(C)(C)O)[C@@H]1CC[C@]2(C)C3=CC[C@H]4C(C)(C)C(=O)CC[C@]4(C)[C@H]3CC[C@@]12C | 2.46 µM
COc1ccc(S(=O)(=O)Nc2cc3c4c(oc3c3ccccc23)CC(C)(C)CC4=O)cc1 | 6.26 µM
CCOc1cc(CNc2ccc3c(c2)CCC3)ccc1OC | > 15 µM (inactive)
Cc1ccc(N=Nc2ccc(O)c3ncccc23)cc1 | 0.098 µM
Cc1ccc(Oc2nc(-c3ccccn3)nc3ccccc23)cc1 | < 0.06 µM
COC(=O)c1c(C)[nH]c(C(=O)OCC(=O)N(CC(C)C)c2c(N)n(Cc3ccccc3)c(=O)[nH]c2=O)c1C | 9.34 µM
CCC1(C)Cc2c(sc3nc(SC)[nH]c(=S)c23)CO1 (stereo not given) | 1.87 µM
C/C(=C\C(=O)OCCCCCCCCC(=O)O)C[C@@H]1OC[C@H](C[C@@H]2O[C@H]2[C@@H](C)[C@H](C)O)[C@@H](O)[C@H]1O | < 0.06 µM
O=C(Nc1cccc(-c2nc3ccccc3[nH]2)c1)c1ccc(C(=O)Nc2cccc(-c3nc4ccccc4[nH]3)c2)cc1 | > 15 µM (inactive)
O=c1cc(-c2ccc(O)c(-c3c(O)cc(O)c4c(=O)cc(-c5ccc(O)cc5)oc34)c2)oc2cc(O)cc(O)c12 | 2.3 µM

SMILES | EC50
COc1cc(C(=O)NC(=S)Nc2ccc(NC(=O)c3ccco3)cc2)cc(OC)c1OC | 8.97 µM
C=CCn1c(COc2ccccc2)nnc1SC(C)C(=O)N/N=C/c1cc(Cl)ccc1O (stereo not given) | 1.7 µM
S=c1nc2ccccc2c2nc(-c3ccccc3)[nH]n12 | 5.36 µM
c1ccc(Nc2nc3ccccc3[nH]2)nc1 | 1.46 µM
Cc1nc(-n2[nH]c3c(c2=O)CCCC3)[nH]c(=O)c1Cc1ccccc1 | 1.39 µM
COc1ccc(NC(=O)c2c[nH]n3c(=O)cc(C4CCN(C(=O)OC(C)(C)C)CC4)nc23)cc1Cl | 3.8 µM
CCOC(=O)c1csc(NC(=O)c2ccc3c(c2)OCCO3)n1 | > 15 µM (inactive)
Oc1[nH]c2ccc(Br)cc2c1N=NC(=S)N1CCOCC1 | 0.108 µM
CCCCCCCCCCCC(=O)c1c(O)cccc1O | 1.58 µM
O=C1C(Cl)=C(Nc2ccc3cn[nH]c3c2)C(=O)c2ccccc21 | 2.21 µM
COc1cccc(N2C(N)=NC(N)=NC2(C)C)c1 | 0.318 µM
CCc1sc(N(C(=O)Cc2ccccc2)c2ccc(F)cc2)nc1-c1ccccc1 | 2.54 µM
COc1cc2nc(CSc3nc(-c4ccc(F)cc4)cs3)[nH]c(=O)c2cc1OC | > 15 µM (inactive)
O=C(Nc1nc(-c2ccccn2)cs1)c1ncc(Cl)c(Cl)c1Cl | 0.771 µM
O=C1C=C(Nc2ccccc2O)c2ccccc2C1=O | 3.08 µM
CC(=O)Oc1ccc(/C=N/NS(=O)(=O)c2ccccc2)cc1 | > 15 µM (inactive)
CN(C)CCNC=C(C(=O)Nc1ccc(Cl)cc1Cl)C(=O)Nc1ccc(Cl)cc1Cl | 3.38 µM
COc1cnc(-c2ccccn2)nc1Oc1ccc(C(C)(C)C)cc1 | 7.68 µM
COc1ccc(O)c(C(=O)CC(=O)c2ccccc2C)c1 | 4.76 µM
CC(C)C[C@H](NC(=O)c1[nH]cnc1C(=O)N[C@@H](Cc1ccccc1)C(=O)OC(C)(C)C)C(=O)OC(C)(C)C | 2.1 µM
Cc1nc(N)sc1-c1csc(N(C)c2ccc(O)cc2)n1 | 3.57 µM
Cc1ccc(-c2cc(C(=O)Nc3ccc(S(=O)(=O)Nc4cc(C)on4)cc3)c3ccccc3n2)c(C)c1 | 5.67 µM
O=C(NCc1ccccc1)C(=O)Nc1nc(-c2ccccc2)cs1 | 5.23 µM
CC(C)(C)c1ccc(CN(Cc2ccco2)Cc2nnnn2C2CCCC2)cc1 | 4.69 µM

Reference: PubChem BioAssay AID1902 (Broad Institute, 2009)
